Measured values from PubChem BioAssay AID1507 (NMMLSC, 2009).
Active and inactive are the calls of the source. No rule for the calls is given here.

System: S. aureus strains, alpha hemolysin production inhibition
Assay: inhibition of S. aureus alpha hemolysin production, S. aureus quorum sensing inhibitors, NM300, NM400, MRSA3757 (AID 1507)
Conditions: for inhibition: stronger effect = higher value
[1] = hemolysin inhibition, MRSA3757, at 12 µM
[2] = hemolysin inhibition, strain NM400, at 12 µM

Structure (SMILES): CC1CCCN(C(C(=O)Nc2ccc3c(c2)OCCO3)c2ccccc2)C1 (stereo not given)
- outcome (at 12 µM): inactive; agr3 active
- inhibition [1]: 20%
- inhibition [2]: 57%

Structure (SMILES): CCc1oc2ccccc2c1C(=O)c1cc(Br)c(O)c(Br)c1
- inhibition (at 6 µM): 100%
- inhibition (hemolysin inhibition, strain NM300, at 6 µM): 100%

Structure (SMILES): CC1CCCN(C(C(=O)Nc2ccc3c(c2)OCO3)c2ccccc2)C1 (stereo not given)
- outcome (at 12 µM): inactive; agr3 active
- inhibition [1]: 15%
- inhibition [2]: 55%

Structure (SMILES): Cc1c(Cl)cccc1Nc1ccccc1C(=O)O
- inhibition (at 30 µM): 99%
- inhibition (hemolysin inhibition, strain NM300, at 30 µM): 100%
